{"source": "paper PMC10544575", "about": "“Inhibitory mechanism of vortioxetine on CYP450 enzymes in human and rat liver microsomes” (Frontiers in Pharmacology, 2023)", "key": {"CYP2B6": {"target": "T1, CYP2B6 (Homo sapiens, UniProt P20813)", "T1 sequence (P20813 1-491)": "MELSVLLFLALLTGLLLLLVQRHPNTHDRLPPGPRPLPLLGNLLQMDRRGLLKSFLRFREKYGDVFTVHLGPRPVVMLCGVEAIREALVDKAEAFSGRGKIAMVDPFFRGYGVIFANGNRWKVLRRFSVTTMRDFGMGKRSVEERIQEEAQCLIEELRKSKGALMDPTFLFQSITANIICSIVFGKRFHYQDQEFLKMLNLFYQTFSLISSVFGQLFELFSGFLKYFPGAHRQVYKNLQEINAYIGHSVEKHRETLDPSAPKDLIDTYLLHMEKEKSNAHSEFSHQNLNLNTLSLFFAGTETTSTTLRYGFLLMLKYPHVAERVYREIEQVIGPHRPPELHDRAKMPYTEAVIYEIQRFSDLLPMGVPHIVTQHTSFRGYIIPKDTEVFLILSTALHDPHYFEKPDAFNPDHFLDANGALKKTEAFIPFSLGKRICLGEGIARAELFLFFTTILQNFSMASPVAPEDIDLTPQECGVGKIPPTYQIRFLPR", "test": "IC50-shift experiment, CYP2B6 in HLMs", "assay_type": "in vitro ADME", "parameters": "0.20 mg/mL HLMs or 0.20 mg/mL RLMs; from tissue; host or cells: human liver microsomes", "details": "for IC50: bupropion 40 μM", "protocol": "(§1) The components of the incubation system were as follows: 0.20 mg/mL HLMs or 0.20 mg/mL RLMs, 0.1 M Tris-HCl, vortioxetine, and the probe substrates of each enzyme. In the study of Km’s (Michaelis–Menten constant) experiment, midazolam (1, 2, 5, 10, 20, 50 and 100 μM in HLMs and RLMs) corresponded to CYP3A4/3A; bupropion (10, 20, 50, 100, 200, 500, 1,000 and 2000 μM in HLMs; 1, 2, 5, 10, 20, 50, 100 and 200 μM in RLMs) corresponded to CYP2B6/2B; amodiaquine (5, 10, 20, 50, 100 and 200 μM in HLMs; 10, 20, 50, 100, 200, 500 μM in RLMs) corresponded to CYP2C8/CYP2C-1; losartan (1, 2, 5, 10, 20, 50, 100, 200 μM in HLMs; 10, 20, 50, 100, 200, 500 and 1,000 μM in RLMs) corresponded to CYP2C9/CYP2C-2; mephenytoin (20, 50, 100, 200, 500 and 1,000 μM in HLMs; 5, 10, 20, 50, 100, 200, 500 and 1,000 μM in RLMs) corresponded to CYP2C19/CYP2C-3; and dextromethorphan (1, 2, 5, 10, 20, 50 and 100 μM in HLMs and RLMs) corresponded to CYP2D6/CYP2D. After 5.0 min of preincubation in the shaking water bath, the reaction was started with the addition of 1.0 mM NADPH. The incubated temperature at 37°C for 30 min. After the incubation, the enzyme reaction was stopped by cooling at −80°C, and 200 μL of acetonitrile and 20 μL of internal standard diazepam (200 ng/mL) were added for protein precipitation. […]\n(§2) IC50-shift was used to investigate whether the drug produced time-dependent inhibition (TDI) of the enzyme. […] During the experiment, the individual substrates midazolam (4 μM), bupropion (40 μM), amodiaquine (3 μM), losartan (8 μM), mephenytoin (90 μM), and dextromethorphan (10 μM) were determined with vortioxetine IC50-shift in HLMs. […]\n(§3) All experiments results were detected by UPLC-MS/MS, which equipped with a Waters Acquity UPLC system (Milford, MA, United States) and a Waters Xevo TQ-S triple quadrupole tandem mass spectrometer with an electrospray ionization source (Milford, MA, United States). […]\n(§4) IC50 values and enzyme kinetic parameters were calculated by Graphpad Prism 6.0 (GraphPad software Inc., CA, United States). […] Data for each experiment were expressed as mean ± SD (n = 3)."}, "CYP2C8": {"target": "T2, CYP2C8 (Homo sapiens, UniProt P10632)", "T2 sequence (P10632 1-490)": "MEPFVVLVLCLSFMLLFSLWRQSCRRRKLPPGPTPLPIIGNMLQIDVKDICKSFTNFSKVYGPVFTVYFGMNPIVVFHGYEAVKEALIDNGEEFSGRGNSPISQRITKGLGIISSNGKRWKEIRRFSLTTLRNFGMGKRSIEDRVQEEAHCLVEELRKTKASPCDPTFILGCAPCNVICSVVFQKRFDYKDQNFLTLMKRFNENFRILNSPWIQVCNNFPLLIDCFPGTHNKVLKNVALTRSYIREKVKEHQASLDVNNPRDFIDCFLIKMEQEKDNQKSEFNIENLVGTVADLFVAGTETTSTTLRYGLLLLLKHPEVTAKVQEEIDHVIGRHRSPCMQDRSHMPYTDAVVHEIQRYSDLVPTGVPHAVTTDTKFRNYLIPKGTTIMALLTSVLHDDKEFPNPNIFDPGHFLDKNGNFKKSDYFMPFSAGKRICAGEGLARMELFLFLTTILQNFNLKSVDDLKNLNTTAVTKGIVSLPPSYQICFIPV", "test": "IC50-shift experiment, CYP2C8 in HLMs", "assay_type": "in vitro ADME", "parameters": "0.20 mg/mL HLMs or 0.20 mg/mL RLMs; from tissue; host or cells: human liver microsomes", "details": "for IC50: amodiaquine 3 μM", "protocol": "as §1, §2, §3, §4"}, "[1]": {"details": "30 min preincubation with 1.0 mM NADPH"}, "[2]": {"details": "30 min preincubation without NADPH"}}, "data": [{"smiles": "Cc1ccc(Sc2ccccc2N2CCNCC2)c(C)c1", "note": "[vortioxetine]", "values": [{"measurement": "IC50", "setting": "CYP2B6; [1]", "result": 6.69, "unit": "µM"}, {"measurement": "IC50", "setting": "CYP2B6; [2]", "result": 5.38, "unit": "µM"}, {"measurement": "IC50 shift at 30 min", "setting": "CYP2B6; human, human liver microsomes, probe bupropion (40 μM), ratio IC50 (−) NADPH to IC50 (+) NADPH, read-out: IC50 fold shift", "result": 0.8}, {"measurement": "IC50", "setting": "CYP2C8; [1]", "result": 18.7, "unit": "µM"}, {"measurement": "IC50", "setting": "CYP2C8; [2]", "result": 18.2, "unit": "µM"}, {"measurement": "IC50 shift at 30 min", "setting": "CYP2C8; human, human liver microsomes, probe amodiaquine (3 μM), ratio IC50 (−) NADPH to IC50 (+) NADPH, read-out: IC50 fold shift", "result": 0.97}]}]}
